Laboratory results: US9289429B2, “Compounds and methods for inhibiting phosphate transport” (Ardelyx, Inc., priority 2010, dated 2016)

Each compound was assayed against T1, rat NaP2b (SLC34A2) (Rattus norvegicus, UniProt Q9JJ09) (assay: NaP2b-mediated Pi transport (33P uptake) in transfected HEK293 cells, rat transporter). Conditions: HEK293 cells transfected with rat NaP2b, 33P phosphate uptake, 100 uM KH2PO4; read-out: pIC50 range for rat Nap2b (converted).
T1 construct: host or cells: HEK293
T1 sequence (Q9JJ09 1-695): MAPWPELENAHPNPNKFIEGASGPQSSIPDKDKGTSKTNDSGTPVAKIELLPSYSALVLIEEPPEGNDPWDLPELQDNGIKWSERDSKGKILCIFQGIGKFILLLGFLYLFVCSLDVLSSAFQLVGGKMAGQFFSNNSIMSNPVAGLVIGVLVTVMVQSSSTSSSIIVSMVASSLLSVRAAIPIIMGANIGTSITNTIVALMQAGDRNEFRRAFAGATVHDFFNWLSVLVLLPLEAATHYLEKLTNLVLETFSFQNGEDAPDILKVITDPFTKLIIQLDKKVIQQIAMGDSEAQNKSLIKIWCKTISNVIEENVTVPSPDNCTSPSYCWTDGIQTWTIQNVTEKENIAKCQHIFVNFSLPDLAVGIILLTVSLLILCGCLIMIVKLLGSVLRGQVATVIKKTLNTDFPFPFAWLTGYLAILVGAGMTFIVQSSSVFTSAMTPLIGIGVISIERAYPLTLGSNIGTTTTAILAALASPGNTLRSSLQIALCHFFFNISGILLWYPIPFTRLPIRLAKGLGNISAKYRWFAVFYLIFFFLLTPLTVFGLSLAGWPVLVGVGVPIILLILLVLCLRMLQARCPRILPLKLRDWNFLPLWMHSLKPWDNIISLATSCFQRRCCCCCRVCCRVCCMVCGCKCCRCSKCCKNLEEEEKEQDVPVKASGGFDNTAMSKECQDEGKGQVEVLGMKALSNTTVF
Format: cell-based
Procedure: HEK293 cells were obtained from the American Type Culture collection and propagated per their instructions. Expression clones for rat and human NaP2b (SLC34A2) were obtained from Open Biosystems (Catalog numbers MRN1768-9510282, and MHS1010-99823026, respectively). The sequence of the human protein was mutated to insert a threonine after residue 37, and to introduce a N39D mutation.
The rate of phosphate (Pi) uptake into HEK293 cells was measured using a modification of the method described by Mohrmann et al. (Mohrmann, I., Mohrmann, M., Biber, J., and Murer, H. (1986) Am. J. Phys. 250(3 Pt 1):G323-30.) Transfected HEK293 cells were treated with a pharmacological agent to minimize endogenous PiT-mediated phosphate transport activity, such that the only remaining sodium-dependent phosphate transport activity is that which was bestowed by introduction of the NaP2b genes.
Cells were seeded into 96-well plates at 25,000 cells/well and cultured overnight. Lipofectamine 2000 (Invitrogen) was used to introduce the NaP2b cDNA, and the cells were allowed to approach confluence during a second overnight incubation. […] Cells were then overlayed with either choline uptake buffer or sodium uptake buffer (14 mM Tris, 137 mM sodium chloride, 5.4 mM KCl, 2.8 mM CaCl2, 1.2 mM MgSO4, 100 uM KH2PO4, PiT-silencing agent, 1 mg/mL Bovine Serum Albumin, pH 7.4) containing 6-9 uCi/mL ^33P orthophosphoric acid (Perkin Elmer) and test compound. Each compound was tested at twelve concentrations ranging from 0.1 nM to 30 uM. Assays were run in duplicate.
After incubation for 3-30 minutes at room temperature, assay mixtures were removed, and the cells were washed twice with ice cold stop solution (137 mM sodium chloride, 14 mM Tris, pH 7.4). Cells were lysed by addition of 20 μL 0.1% Tween 80 followed by 100 μL scintillation fluid, and counted using a TopCount (Perkin Elmer).
pIC50 (the negative log of the IC50) values of the test compounds were calculated using GraphPad Prism.
For `Cc1ccc(-c2cnc(NC(=O)c3cc(N4CCCCC4)ccc3NC(=O)c3cccc(CSCCC(=O)O)c3)cn2)cc1C` [Example 1, 3-((3-((2-((5-(3,4-Dimethylphenyl)pyrazin-2-yl)carbamoyl)-4-(piperidin-1-yl)phenyl)carbamoyl)benzyl)thio)propanoic acid], the IC50 was 1 to 7.94 µM.
Work on `O=C(O)c1cccc(SCc2cccc(C(=O)Nc3ccc(N4CCCCC4)cc3C(=O)Nc3cnc(-c4ccccc4)nc3)c2)c1` [Example 3, 3-((3-((2-((2-Phenylpyrimidin-5-yl)carbamoyl)-4-(piperidin-1-yl)phenyl)carbamoyl)benzyl)thio)benzoic acid] yielded an IC50 of 1 to 7.94 µM.
In the case of `Cc1ccc(-c2cnc(NC(=O)c3cc(N4CCCCC4)ccc3NC(=O)c3cccc(C(=O)NCCOCCO)c3)cn2)cc1C` [Example 5, N1-(2-((5-(3,4-Dimethylphenyl)pyrazin-2-yl)carbamoyl)-4-(piperidin-1-yl)phenyl)-N3-(2-(2-hydroxyethoxy)ethyl)isophthalamide], the IC50 is reported as 10 to 31.6 µM.
`O=C(NCCOCCO)c1cccc(C(=O)Nc2ccc(N3CCCCC3)cc2C(=O)Nc2cnc(-c3cccc(C(F)(F)F)c3)cn2)c1` [Example 6, N1-(2-(2-Hydroxyethoxy)ethyl)-N3-(4-(piperidin-1-yl)-2-((5-(3-(trifluoromethyl)phenyl)pyrazin-2-yl)carbamoyl)phenyl)isophthalamide] was tested, and the IC50 was 10 to 31.6 µM.
For `CCN(CC)CCN(C)Cc1cccc(C(=O)Nc2ccc(N3CCCCC3)cc2C(=O)Nc2ncc(-c3ccc(C)c(C)c3)cn2)c1` [Example 7, 2-(3-(((2-(Diethylamino)ethyl)(methyl)amino)methyl)benzamido)-N-(5-(3,4-dimethylphenyl)pyrimidin-2-yl)-5-(piperidin-1-yl)benzamide], the IC50 was 1 to 7.94 µM.
Compound `O=C(NCCOCCO)c1cccc(C(=O)Nc2ccc(N3CCCCC3)cc2C(=O)Nc2ncc(-c3cccc(C(F)(F)F)c3)cn2)c1` [Example 8] has an IC50 of 10 to 31.6 µM.
`CCN(CC)CCN(C)Cc1cccc(C(=O)Nc2ccc(N3CCCCC3)cc2C(=O)Nc2ncc(-c3cccc(C(F)(F)F)c3)cn2)c1` [Example 9, 2-(3-(((2-(Diethylamino)ethyl)(methyl)amino)methyl)benzamido)-5-(piperidin-1-yl)-N-(5-(3-(trifluoromethyl)phenyl)pyrimidin-2-yl)benzamide] showed an IC50 of 10 to 31.6 µM.
`Cc1ccc(-c2cnc(NC(=O)c3cc(N4CCCCC4)ccc3NC(=O)c3cccc(CSCCC(=O)O)c3)nc2)cc1C` [Example 13, 3-(3-(2-(5-(3,4-dimethylphenyl)pyrimidin-2-ylcarbamoyl)-4-(piperidin-1-yl)phenylcarbamoyl)benzylthio)propanoic acid] showed an IC50 of 1 to 7.94 µM.
Compound `O=C(O)CCSCc1cccc(C(=O)Nc2ccc(N3CCCCC3)cc2C(=O)Nc2ncc(-c3cccc(C(F)(F)F)c3)cn2)c1` [Example 14, 3-((3-((4-(Piperidin-1-yl)-2-((5-(3-(trifluoromethyl)phenyl)pyrimidin-2-yl)carbamoyl)phenyl)carbamoyl)benzyl)thio)propanoic acid] has an IC50 of 10 to 31.6 µM.
Compound `Cc1ccc(-c2cnc(NC(=O)c3cc(N4CCCCC4)ccc3NC(=O)c3cccc(C(=O)NCCOCCO)c3)nc2)cc1C` [Example 16, N1-(2-((5-(3,4-Dimethylphenyl)pyrimidin-2-yl)carbamoyl)-4-(piperidin-1-yl)phenyl)-N3-(2-(2-hydroxyethoxy)ethyl)isophthalamide] has an IC50 of 10 to 31.6 µM.
